ChEMBL document CHEMBL1129801, “3-Benzyloxy-2-phenylpiperidine NK1 antagonists: the influence of alpha methyl substitution” (Bioorg Med Chem Lett, 1997)

Experiments:
[1] = target: Substance-P receptor (Rattus norvegicus, UniProt P14600); test: […]; type: functional, microsomes, Liver, Microsome
[2] = Compound was tested in vivo for the ability to antagonise extravasation induced by the administration.; type: functional; details: read-out: ID50 (the source's name)
[3] = Compound was tested in vivo for the ability to antagonise extravasation induced by the administration; type: functional
[4] = (§1) Compound was tested in vivo for the ability to antagonise extravasation induced by the administration at 1 mg/kg po.; type: functional
[5] = as §1; type: functional; remark: listed apart in the source

Chain of Substance-P receptor (P14600 whole entry): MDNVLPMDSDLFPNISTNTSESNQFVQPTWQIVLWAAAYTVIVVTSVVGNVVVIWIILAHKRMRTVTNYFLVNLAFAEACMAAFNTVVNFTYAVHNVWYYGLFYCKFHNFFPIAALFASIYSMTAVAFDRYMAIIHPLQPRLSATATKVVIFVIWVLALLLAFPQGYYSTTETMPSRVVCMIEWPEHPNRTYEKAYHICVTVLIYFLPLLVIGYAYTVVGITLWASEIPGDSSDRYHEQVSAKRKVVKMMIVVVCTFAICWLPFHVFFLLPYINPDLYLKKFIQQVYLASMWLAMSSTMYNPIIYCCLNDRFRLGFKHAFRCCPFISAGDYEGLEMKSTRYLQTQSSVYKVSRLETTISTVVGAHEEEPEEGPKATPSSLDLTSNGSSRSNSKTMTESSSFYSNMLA

IC50 [1] | SMILES | also measured
160 nM | c1ccc(CO[C@H]2CCCN[C@H]2c2ccccc2)cc1 | 
0.09 nM | C[C@@H](O[C@H]1CCCN(Cc2n[nH]c(O)n2)[C@H]1c1ccccc1)c1cc(Cl)cc(Cl)c1 | ED50 [2]: > 0.1 mg/kg
0.16 nM | C[C@@H](O[C@H]1CCCN(Cc2nc[nH]n2)[C@H]1c1ccccc1)c1cc(C(F)(F)F)cc(C(F)(F)F)c1 | Inhibition [3]: 12%; ED50 [2]: 0.06 mg/kg; inhibition in vivo at 1 mg/kg [4]: 78%
0.15 nM | C[C@@H](O[C@H]1CCCN[C@H]1c1ccccc1)c1cc(C(F)(F)F)cc(C(F)(F)F)c1 | 
0.91 nM | C[C@@H](O[C@H]1CCCN[C@H]1c1ccccc1)c1cc(Cl)cc(Cl)c1 | 
86 nM | C[C@@H](O[C@H]1CCCN[C@H]1c1ccccc1)c1ccccc1 | 
> 10000 nM | C[C@H](O[C@H]1CCCN[C@H]1c1ccccc1)c1ccccc1 | 
0.8 nM | FC(F)(F)c1cc(CO[C@H]2CCCN[C@H]2c2ccccc2)cc(C(F)(F)F)c1 | 
87 nM | C[C@H](O[C@H]1CCCN[C@H]1c1ccccc1)c1cc(C(F)(F)F)cc(C(F)(F)F)c1 | 
5.9 nM | C[C@@H](O[C@H]1CCCN(Cc2n[nH]c(=O)[nH]2)[C@H]1c1ccccc1)c1ccccc1 | 
85 nM | C[C@H](O[C@H]1CCCN[C@H]1c1ccccc1)c1cc(Cl)cc(Cl)c1 | 
25 nM | C[C@H](O[C@H]1CCCN(Cc2n[nH]c(O)n2)[C@H]1c1ccccc1)c1cc(Cl)cc(Cl)c1 | 
0.16 nM | C[C@@H](O[C@H]1CCCN(Cc2n[nH]c(O)n2)[C@H]1c1ccccc1)c1cc(C(F)(F)F)cc(C(F)(F)F)c1 | inhibition in vivo at 1 mg/kg [5]: 66%; ED50 [2]: 0.026 mg/kg; inhibition in vivo at 1 mg/kg [4]: 97%
0.18 nM | FC(F)(F)c1cc(CO[C@H]2CCCN(Cc3nc[nH]n3)[C@H]2c2ccccc2)cc(C(F)(F)F)c1 | Inhibition [3]: 0%; ED50 [2]: 0.034 mg/kg; inhibition in vivo at 1 mg/kg [4]: 55%
